Test results: patent US11857544B2, “Composition or method including (t)ew-7197 for treating or preventing corneal endothelial diseases” (THE DOSHISHA, priority 2017, dated 2024)

Columns and labels:
iFECD = assay: Cell survival rate (Cell Titer-Glo Luminescent Cell Viability Assay); assay type: cell-based, human
Protocol: were seeded on a 96-well plate at a ratio of 3×10^3 cells per well, and cultured until reaching confluence at 37° C. (5% CO2). DMEM+10% FBS+1% P/S was used as the medium. After 24 hours, the medium was removed. SB431542 (WAKO, 192-16541) and EW-7197 (Selleck Chemicals, 57530) were added so that the final concentration would each be 0.01, 0.1, 1, or 10 μM, and the medium was cultured for 48 hours. DMEM+2% FBS+1% P/S was used as the medium. After 24 hours, the cell morphology was observed under a phase contrast microscope. After observation, the cell survival rate was analyzed using Cell Titer-Glo Luminescent Cell Viability Assay by the following procedures. The medium was discarded so that the amount would be 50 μl per well, and Cell Titer-Glo Luminescent Cell Viability Assay solution (Promega, G7572) was added at 50 μl/well so that the ratio to the medium would be 1:1. The process was hereinafter conducted without exposure to light. The mixture was mixed thoroughly using a shaker for 2 minutes at about 120 min^-1, and incubated for 10 minutes. After the incubation, 80 μl was transferred to an Assay plate (Corning, 3912, Assay plate 96 well, white polystyrene), and absorbance was measured using a GloMax-Multi Detection System (Promega, E7051).

Col8a2 knock-in mice = assay: Corneal endothelial cell density after eye drops in Col8a2 knock-in mice (Example 5, 8 weeks); assay type: in vivo; settings: for Amount of change in the corneal endothelial cell density (ΔECD): 0.02% eye drop 4 times a day
Protocol: This Example evaluated the efficacy of an EW-7197 eye drop on Fuchs' endothelial corneal dystrophy using a Fuchs' endothelial corneal dystrophy animal model, Col8a2 knock-in mice. Col8a2 knock-in mice are established animal models of Fuchs' endothelial corneal dystrophy (reference: Jun et al., Hum Mol Genet. 2012 Jan. 15; 21(2): 384-93). 5 μL of 0.02% (about 0.5 mM) EW-7197 eye drop or a base agent (7% DMSO containing PBS) was administered as an eye drop to both eyes of 4-month-old alpha 2 collagen 8 gene (Col8a2) knock-in mice 4 times a day for 8 weeks. The corneal endothelial cell density was measured using a specular microscope KS3M (Konan Medical, Inc.) at before eye drops, and 2, 4, 6, and 8 weeks after eye drops. Mice were euthanized by intraperitoneally administering an excessive amount (200 mg/kg body weight or greater) of anesthetic injection Somnopentyl (Kyoritsu Seiyaku Corporation) 8 weeks after injection. After confirming cardiac arrest, both eye balls were harvested. The harvested eye balls were incised to prepare a corneal fragment. Immunostaining of type I collagen and fibronectin was performed as follows. Image-Pro (Nippon Roper K.K.) was used to analyze the area of type I collagen and fibronectin expression.

[1] = system: immortalized human corneal endothelial cells from a Fuchs' endothelial corneal dystrophy patient (iFECD); assay: Suppression of TGF-β-induced corneal endothelial cell disorder, observed under a phase contrast microscope; assay type: cell-based; settings: for effect of suppressing corneal endothelial cell disorder: Example 1, iFECD, 24 h pretreatment then 10 ng/ml TGF-β 24 h; for effect of suppressing corneal endothelial cell disorders: Example 2, iFECD + TGF-β
Protocol: The medium was removed from a culture dish culturing immortalized human corneal endothelial cells from a Fuchs' endothelial corneal dystrophy patient (iFECD), and 1×PBS(-) preheated to 37° C. was added and washed. This was repeated twice. 1×PBS(-) was added again and the medium was incubated for 5 minutes at 37° C. (5% CO2). After removing the PBS(-), 0.05% Trypsin-EDTA (Nacalai Tesque, 32778-34) was added and incubated for 5 minutes at 37° C. (5% CO2). The medium was then suspended and centrifuged for 3 minutes at 1500 rpm to retrieve cells. DMEM (Nacalai Tesque, 08456-36)+10% FBS (Biowest, S1820-500)+1% P/S (Nacalai Tesque, 26252-94) was used as the medium. The immortalized human corneal endothelial cells from a Fuchs' endothelial corneal dystrophy patient (iFECD) were seeded on a 12-well plate at a ratio of 8.0×10^4 cells per well and cultured for 24 hours at 37° C. (5% CO2). DMEM+10% FBS+1% P/S was used as the medium. After 24 hours, the medium was exchanged and cultured again for 24 hours. DMEM+2% FBS+1% P/S was used as the medium. After 24 hours, the medium was removed. 10 ng/ml of Transforming Growth Factor-132 Human recombinant (WAKO, 200-19911) was added, and the medium was cultured for 24 hours. DMEM+2% FBS+1% P/S was used as the medium. After 24 hours, the cell morphology and apoptosis were observed under a phase contrast microscope. After […] were seeded on a 12-well plate and cultured for 24 hours, the medium was removed. SB431542 (WAKO, 192-16541) and EW-7197 (Selleck Chemicals, 57530) were added so that the final concentration would each be 0.1, 0.3, 1, 3, or 10 μM, and the medium was cultured for 24 hours. DMEM+2% FBS+1% P/S was used as the medium. After 24 hours, the medium was removed. 10 ng/ml of Transforming Growth Factor-132 Human recombinant (WAKO, 200-19911) as well as SB431542 and EW-7197 were added so that the final concentration would each be 0.1, 0.3, 1, 3, or 10 μM, and the medium was cultured for 24 hours. DMEM+2% FBS+1% P/S was used as the medium. After 24 hours, the cell morphology and apoptosis were observed under a phase contrast microscope. After […] were seeded on a 12-well plate at a ratio of 7.0×10^4 cells and cultured for 24 hours, the medium was removed. EW-7197 (Selleck Chemicals, 57530) was added so that the final concentration would be 0.001, 0.003, 0.01, 0.03, 0.1, 0.3, 1, 3, 10, or 30 μM, and the medium was cultured for 24 hours. DMEM+2% FBS+1% P/S was used as the medium. After 24 hours, the medium was removed. 10 ng/ml of Transforming Growth Factor-132 Human recombinant (WAKO, 200-19911) and EW-7197 were added so that the final concentration would be 0.001, 0.003, 0.01, 0.03, 0.1, 0.3, 1, 3, 10, or 30 μM, and the medium was cultured for 24 hours. DMEM+2% FBS+1% P/S was used as the medium. After 24 hours, the cell morphology and apoptosis were observed under a phase contrast microscope.

SMILES: Cc1cccc(-c2[nH]c(CNc3ccccc3F)nc2-c2ccc3ncnn3c2)n1 [EW-7197, N-((4-([1,2,4]triazolo[1,5-a]pyridin-6-yl)-5-(6-methylpyridin-2-yl)-1H-imidazol-2-yl)methyl)-2-fluoroaniline]
- cell survival rate compared to a control group (iFECD; iFECD, all concentrations of 0.01, 0.1, 1, and 10 μM, 48 hours): a significant difference was not found
- toxicity to cells in a cell survival rate test (iFECD; summary statement): hardly found
- decrease in the corneal endothelial cell density compared to the base agent group (Col8a2 knock-in mice; 0.02% eye drop): suppressed significantly
- Amount of change in the corneal endothelial cell density (ΔECD) (Col8a2 knock-in mice; week 0 (before eye drop)): 0 cells/mm^2
- Amount of change in the corneal endothelial cell density (ΔECD) (Col8a2 knock-in mice; week 4): −121.4 cells/mm^2
- Amount of change in the corneal endothelial cell density (ΔECD) (Col8a2 knock-in mice; week 8): −284.5 cells/mm^2
- effect of suppressing corneal endothelial cell disorder ([1]; compound at 3 μM and 10 μM): confirmed
- effect of suppressing corneal endothelial cell disorder ([1]; compound at 0.1, 0.3, and 1 μM): effectively suppressed
- effect of suppressing corneal endothelial cell disorders ([1]; compound at 3 μM and 10 μM): effectively suppressed
- effect of suppressing corneal endothelial cell disorders ([1]; compound at 0.03, 0.1, 0.3, and 1 μM): particularly excellent effect of suppressing corneal endothelial cell disorders
- effect of suppressing corneal endothelial disorders ([1]; summary statement, at a low concentration of 0.03 μM): very potent effect of suppressing corneal endothelial disorders
